Here are results for eleven compounds from patent US6703362B1, “Random peptides that bind to gastro-intestinal tract (GIT) transport receptors and related methods” (Cytogen Corporation, priority 1997, dated 2004).

The subject of the test is P100 membrane fractions derived from Caco-2 cells. In words: Dansylated peptide ELISA: relative binding of PAX2 and HAX42 peptides to P100 (ratio to ZElan021). As to conditions: ratio to ZElan021 = 1.00. The protocol: The peptides and proteins were analyzed by a dansylated peptide ELISA method in which 96 well plates were coated overnight at 4° C. with 100 μl/well coating protein (normally 100 μg/ml P100 membrane fraction) in 0.05M carbonate buffer pH9.6. Nonspecific binding was blocked using 200 μl/well, 2% Marvel/PBS for 2 hours at 37° C. prior to incubation with dansylated peptides. The plates were washed three times with PBS/0.05% Tween 20 and after each subsequent incubation step. […] A buffer blank control was included to ensure that background binding to plastic was not due to the antibodies used in the assay system. […] The plates were then incubated with an anti-mouse X-HRP conjugated antibody (Southern Biotech 1060-05) at a 1:10,000 dilution in blocking solution, 100 μl/well for 1 hour at room temperature. Plates were developed using 75 μl/well Bionostics TMB substrate and incubated for approximately 10 minutes. The developing reaction was stopped using Bionostics Red Stop solution (25 μl/well), and the optical density of the plates was read at 650nm.
A general note: An ELISA detects its analyte on a solid surface through an enzyme-linked reagent.

Setting [1] is: PAX2 peptides, first 20 μg/ml column.
[2] abbreviates: PAX2 peptides, first 50 μg/ml column.
Where [3] appears, read: PAX2 peptides, second 20 μg/ml column.
[4] abbreviates: PAX2 peptides, second 50 μg/ml column.
The mark [5] stands for this setting: HAX42 peptides, first 50 μg/ml column.
The mark [6] stands for this setting: HAX42 peptides, second 50 μg/ml column.

Peptide text beside a SMILES is read from it. * marks the point of attachment. Dansyl = CN(C)c1cccc2c(S(=O)(=O)*)cccc12

Turning to `C[C@H](NC(=O)[C@H](CC(N)=O)NC(=O)[C@@H](NC(=O)[C@@H](N)CCCCNS(=O)(=O)c1cccc2c(N(C)C)cccc12)[C@@H](C)O)C(=O)N[C@@H](CCCCN)C(=O)N[C@@H](Cc1c[nH]cn1)C(=O)N[C@@H](CO)C(=O)N[C@@H](CO)C(=O)N[C@@H](Cc1c[nH]cn1)C(=O)N[C@@H](CC(N)=O)C(N)=O` [ZElan055] (H-K(Dansyl)TNAKHSSHN-NH2), the “Binding value at 20 μg/ml” value runs as follows: under setting [1], 0.99; under setting [3], 0.73. In addition, the “Binding value at 50 μg/ml” value was 1.10 under setting [2] and 0.59 under setting [4].

Consider `CC(C)C[C@H](NC(=O)[C@H](CCCNC(=N)N)NC(=O)[C@H](CCCNC(=N)N)NC(=O)[C@@H](N)CCCCNS(=O)(=O)c1cccc2c(N(C)C)cccc12)C(=O)N[C@@H](CCCNC(=N)N)C(=O)N[C@H](C(=O)N[C@@H](CCCNC(=N)N)C(=O)N[C@@H](CO)C(=O)N[C@@H](CCCNC(=N)N)C(=O)N1CCC[C@H]1C(=O)N[C@@H](CC(N)=O)C(N)=O)[C@@H](C)O` [ZElan056] (H-K(Dansyl)RRLRTRSRPN-NH2), for which the “Binding value at 20 μg/ml” value by setting is: under setting [1], 0.00; under setting [3], 0.16. Besides, the “Binding value at 50 μg/ml” value under setting [2] turned out to be 0.21 and the “Binding value at 50 μg/ml” value under setting [4] is 0.21.

With `CC(C)C[C@H](NC(=O)[C@H](CCCNC(=N)N)NC(=O)[C@H](CCCNC(=N)N)NC(=O)[C@@H](N)CCCCNS(=O)(=O)c1cccc2c(N(C)C)cccc12)C(=O)N[C@@H](CCCNC(=N)N)C(=O)N[C@H](C(=O)N[C@@H](CCCNC(=N)N)C(=O)N[C@@H](CO)C(=O)N[C@@H](CCCNC(=N)N)C(N)=O)[C@@H](C)O` [ZElan057] (H-K(Dansyl)RRLRTRSR-NH2), under setting [1], the “Binding value at 20 μg/ml” value was determined as 0.08. Also, the “Binding value at 50 μg/ml” value by setting is: under setting [2], 0.56; under setting [4], 0.25.

In the case of `CC(C)C[C@H](NC(=O)[C@H](CCCNC(=N)N)NC(=O)[C@H](CCCNC(=N)N)NC(=O)[C@@H](N)CCCCNS(=O)(=O)c1cccc2c(N(C)C)cccc12)C(=O)N[C@@H](CCCNC(=N)N)C(=O)N[C@H](C(=O)N[C@@H](CCCNC(=N)N)C(N)=O)[C@@H](C)O` [ZElan058, H2N—K(dns)RRLRTR—CONH2] (H-K(Dansyl)RRLRTR-NH2), the “Binding value at 20 μg/ml” value under setting [1] amounted to 0.05. The “Binding value at 50 μg/ml” value is on record as 0.47 under setting [2] and 0.16 under setting [4].

For the compound `CC(C)C[C@H](NC(=O)[C@H](C)NC(=O)[C@H](Cc1c[nH]cn1)NC(=O)[C@H](CC(=O)O)NC(=O)[C@H](CO)NC(=O)[C@@H](N)CCCCNS(=O)(=O)c1cccc2c(N(C)C)cccc12)C(=O)NCC(=O)N[C@H](C(=O)N[C@@H](CC(N)=O)C(=O)N[C@@H](CC(C)C)C(=O)N[C@@H](CCCNC(=N)N)C(=O)N[C@@H](CO)C(=O)N[C@@H](CC(=O)O)C(=O)N[C@@H](CC(N)=O)C(=O)N[C@@H](C)C(=O)N[C@@H](CCCCN)C(=O)N[C@@H](CCC(=O)O)C(=O)N1CCC[C@H]1C(=O)NCC(=O)N[C@@H](CC(=O)O)C(=O)N[C@@H](Cc1ccc(O)cc1)C(=O)N[C@@H](CC(N)=O)C(=O)N[C@@H](CS)C(=O)N[C@@H](CS)C(=O)NCC(=O)N[C@@H](CC(N)=O)C(=O)NCC(N)=O)[C@@H](C)O` [ZElan060] (H-K(Dansyl)SDHALGTNLRSDNAKEPGDYNCCGNG-NH2), the “Binding value at 20 μg/ml” value (HAX42 peptides) is 0.44. Also, the “Binding value at 50 μg/ml” value is, setting by setting: under setting [5], 0.56; under setting [6], 0.43.

As for `CC[C@H](C)[C@H](NC(=O)[C@H](C)NC(=O)[C@H](CO)NC(=O)[C@@H]1CCCN1C(=O)[C@H](CCCNC(=N)N)NC(=O)[C@H](CCCNC(=N)N)NC(=O)[C@H](CCCNC(=N)N)NC(=O)[C@H](CC(N)=O)NC(=O)[C@H](Cc1ccccc1)NC(=O)[C@@H](NC(=O)[C@H](CCCCN)NC(=O)[C@H](CCCNC(=N)N)NC(=O)CNC(=O)[C@@H](NC(=O)[C@H](CO)NC(=O)[C@H](CC(N)=O)NC(=O)CNC(=O)[C@H](CC(N)=O)NC(=O)CNC(=O)[C@H](CS)NC(=O)[C@H](CS)NC(=O)[C@H](CC(N)=O)NC(=O)[C@H](Cc1ccc(O)cc1)NC(=O)[C@H](CC(=O)O)NC(=O)CNC(=O)[C@@H](N)CCCCNS(=O)(=O)c1cccc2c(N(C)C)cccc12)[C@@H](C)O)C(C)C)C(=O)N1CCC[C@H]1C(=O)N[C@H](C(N)=O)[C@@H](C)O` [ZElan061] (H-K(Dansyl)GDYNCCGNGNSTGRKVFNRRRPSAIPT-NH2), the “Binding value at 20 μg/ml” value (HAX42 peptides) worked out at 0.20. The “Binding value at 50 μg/ml” value is, setting by setting: under setting [5], 0.60; under setting [6], 0.38.

On to `CC(C)C[C@H](NC(=O)[C@H](C)NC(=O)[C@H](Cc1c[nH]cn1)NC(=O)[C@H](CC(=O)O)NC(=O)[C@H](CO)NC(=O)[C@@H](N)CCCCNS(=O)(=O)c1cccc2c(N(C)C)cccc12)C(=O)NCC(=O)N[C@H](C(=O)N[C@@H](CC(N)=O)C(=O)N[C@@H](CC(C)C)C(=O)N[C@@H](CCCNC(=N)N)C(=O)N[C@@H](CO)C(=O)N[C@@H](CC(=O)O)C(=O)N[C@@H](CC(N)=O)C(=O)N[C@@H](C)C(=O)N[C@@H](CCCCN)C(=O)N[C@@H](CCC(=O)O)C(=O)N1CCC[C@H]1C(=O)NCC(N)=O)[C@@H](C)O` [ZElan062] (H-K(Dansyl)SDHALGTNLRSDNAKEPG-NH2), for which, for the setting “HAX42 peptides”, the “Binding value at 20 μg/ml” value is 0.11. The “Binding value at 50 μg/ml” value is listed as 0.42 under setting [5] and 0.34 under setting [6].

For the compound `CC(C)[C@H](NC(=O)[C@H](CCCCN)NC(=O)[C@H](CCCNC(=N)N)NC(=O)[C@@H](N)CCCCNS(=O)(=O)c1cccc2c(N(C)C)cccc12)C(=O)N[C@@H](Cc1ccccc1)C(=O)N[C@@H](CC(N)=O)C(=O)N[C@@H](CCCNC(=N)N)C(=O)N[C@@H](CCCNC(=N)N)C(=O)N[C@@H](CCCNC(=N)N)C(=O)N1CCC[C@H]1C(=O)N[C@@H](CO)C(N)=O` [ZElan065] (H-K(Dansyl)RKVFNRRRPS-NH2), the “Binding value at 20 μg/ml” value (HAX42 peptides) stood at 0.00. In addition, the “Binding value at 50 μg/ml” value by setting is: under setting [5], 0.54; under setting [6], 0.30.

For `CN(C)c1cccc2c(S(=O)(=O)NCCCC[C@H](N)C(=O)N[C@@H](CC(N)=O)C(=O)N[C@@H](CCCNC(=N)N)C(=O)N[C@@H](CCCNC(=N)N)C(=O)N[C@@H](CCCNC(=N)N)C(=O)N3CCC[C@H]3C(=O)N[C@@H](CO)C(N)=O)cccc12` [ZElan067, H2N—K(dns)NRRRPS—CONH2] (H-K(Dansyl)NRRRPS-NH2), the “Binding value at 20 μg/ml” value (HAX42 peptides) stood at 0.08. Also, the “Binding value at 50 μg/ml” value came out at 0.52 under setting [5] and 0.40 under setting [6].

For the compound `CC(C)C[C@H](NC(=O)[C@H](C)NC(=O)[C@H](Cc1c[nH]cn1)NC(=O)[C@H](CC(=O)O)NC(=O)[C@H](CO)NC(=O)[C@@H](N)CCCCNS(=O)(=O)c1cccc2c(N(C)C)cccc12)C(=O)NCC(=O)N[C@H](C(=O)N[C@@H](CC(N)=O)C(=O)N[C@@H](CC(C)C)C(=O)N[C@@H](CCCNC(=N)N)C(=O)N[C@@H](CO)C(=O)N[C@@H](CC(=O)O)C(=O)N[C@@H](CC(N)=O)C(=O)N[C@@H](C)C(=O)N[C@@H](CCCCN)C(=O)N[C@@H](CCC(=O)O)C(=O)N1CCC[C@H]1C(=O)NCC(=O)N[C@@H](CC(=O)O)C(=O)N[C@@H](Cc1ccc(O)cc1)C(=O)N[C@@H](CC(N)=O)C(=O)N[C@@H](CS)C(=O)N[C@@H](CS)C(=O)NCC(=O)N[C@@H](CC(N)=O)C(=O)NCC(=O)N[C@@H](CC(N)=O)C(=O)N[C@@H](CO)C(=O)N[C@H](C(N)=O)[C@@H](C)O)[C@@H](C)O` [ZElan070] (H-K(Dansyl)SDHALGTNLRSDNAKEPGDYNCCGNGNST-NH2), the “Binding value at 20 μg/ml” value (HAX42 peptides) turned out to be 0.59. Further, the “Binding value at 50 μg/ml” value by setting is: under setting [5], 0.97; under setting [6], 0.39.

Consider `CC(C)C[C@H](NC(=O)[C@H](CC(N)=O)NC(=O)[C@@H](N)CCCCNS(=O)(=O)c1cccc2c(N(C)C)cccc12)C(=O)N[C@@H](CCCNC(=N)N)C(=O)N[C@@H](CO)C(=O)N[C@@H](CC(=O)O)C(=O)N[C@@H](CC(N)=O)C(=O)N[C@@H](C)C(=O)N[C@@H](CCCCN)C(=O)N[C@@H](CCC(=O)O)C(=O)N1CCC[C@H]1C(=O)NCC(=O)N[C@@H](CC(=O)O)C(=O)N[C@@H](Cc1ccc(O)cc1)C(=O)N[C@@H](CC(N)=O)C(=O)N[C@@H](CS)C(=O)N[C@@H](CS)C(=O)NCC(=O)N[C@@H](CC(N)=O)C(=O)NCC(=O)N[C@@H](CC(N)=O)C(=O)N[C@@H](CO)C(=O)N[C@H](C(=O)NCC(=O)N[C@@H](CCCNC(=N)N)C(=O)N[C@@H](CCCCN)C(=O)N[C@H](C(=O)N[C@@H](Cc1ccccc1)C(=O)N[C@@H](CC(N)=O)C(=O)N[C@@H](CCCNC(=N)N)C(N)=O)C(C)C)[C@@H](C)O` [ZElan071] (H-K(Dansyl)NLRSDNAKEPGDYNCCGNGNSTGRKVFNR-NH2), for which the “Binding value at 20 μg/ml” value (HAX42 peptides) is listed as 1.22. Also, the “Binding value at 50 μg/ml” value under setting [5] was determined as 0.89 and the “Binding value at 50 μg/ml” value under setting [6] came to 0.75.
